“And” between values parts separate entries of the source, which are not always exact repeats. Equal values may be shown once.
Assays:
CB1 = CB1 (UniProt P21554); test: CB1 radioligand binding assay; set-up: species or system human; settings: read-out: Ki (CB1)
Procedure: The target compounds were evaluated in vitro at the human CB1 receptor, stably expressed into Chinese hamster ovary (CHO) cells by utilizing radioligand binding studies.
The binding constant for the synthesized compounds were determined by using radioligand binding assay in mouse brain membranes as well as the target compounds were evaluated in vitro at the human CB1 receptor, stably expressed into Chinese hamster ovary (CHO) cells as well as mouse brain membrane CB1. […]

Brain/CB1 = target: T1, Brain/CB1 (Mus musculus, UniProt P47746); test: Functional GTPγS binding, Brain/CB1; type: biochemical
T1 construct: from tissue; host or cells: mouse brain membranes
Text: Furthermore, the intermediates urea compounds 8a-m were chlorinated with phosphorus oxychloride in the presence of DIPEA base to form imidoyl chloride intermediate and reacted with acetamidine hydrochloride/methyl carbamimidothioate iodide/methyl carbamimidoselenoate iodide and other amines to furnish the target compounds (10a-34b) (Scheme 2, FIG. 2, Scheme 5, FIG. 5). The urea derivatives were converted to the thiourea derivatives 9a-9d by employing sodium thiosulfate. Compound 8a-b, 8e-f were converted to corresponding thiourea by employing sodium thiosulfate dissolved in water dioxane mixture and the reaction was heated to 85° C. for 2 h. […] The binding constant for the synthesized compounds were determined by using radioligand binding assay in mouse brain membranes as well as the target compounds were evaluated in vitro at the human CB1 receptor, stably expressed into Chinese hamster ovary (CHO) cells as well as mouse brain membrane CB1.

T1 sequence (P47746 whole entry): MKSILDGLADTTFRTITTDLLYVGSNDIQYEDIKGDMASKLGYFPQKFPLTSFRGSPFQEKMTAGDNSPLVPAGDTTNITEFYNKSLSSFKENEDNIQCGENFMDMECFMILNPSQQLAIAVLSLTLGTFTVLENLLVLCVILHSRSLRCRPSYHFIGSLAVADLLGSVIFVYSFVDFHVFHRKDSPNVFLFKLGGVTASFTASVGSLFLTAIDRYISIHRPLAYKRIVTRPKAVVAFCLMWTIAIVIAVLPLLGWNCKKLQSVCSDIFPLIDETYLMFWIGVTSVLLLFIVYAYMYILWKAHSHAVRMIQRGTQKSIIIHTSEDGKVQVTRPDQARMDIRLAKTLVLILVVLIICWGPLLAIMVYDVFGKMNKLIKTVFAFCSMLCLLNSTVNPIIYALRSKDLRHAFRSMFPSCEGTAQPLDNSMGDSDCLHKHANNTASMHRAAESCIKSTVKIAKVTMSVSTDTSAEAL

CC(N/C(=N/S(=O)(=O)c1ccc(C(F)(F)F)cc1)N1CCC(c2ccccc2)C(c2ccc(Cl)cc2)=N1)C(N)=O (single isomer, unassigned) [Compound 31b, (Z)-2-(3-(4-chlorophenyl)-4-phenyl-N′-((4-(trifluoromethyl)phenyl)sulfonyl)-1,4,5,6-tetrahydropyridazine-1-carboximidamido) propenamide]
Ki (CB1): 8.05 nM | IC50 (Brain/CB1): 33 nM

CCC(N/C(=N/S(=O)(=O)c1ccc(C(F)(F)F)cc1)N1CCC(c2ccccc2)C(c2ccc(Cl)cc2)=N1)C(N)=O (single isomer, unassigned) [Compound 32b, (Z)-2-(3-(4-chlorophenyl)-4-phenyl-N′-((4-(trifluoromethyl)phenyl)sulfonyl)-1,4,5,6-tetrahydropyridazine-1-carboximidamido) butanamide]
Ki (CB1): 77.4 nM | IC50 (Brain/CB1): 174 nM

NC(=O)C(Cc1ccccc1)N/C(=N/S(=O)(=O)c1ccc(C(F)(F)F)cc1)N1CCC(c2ccccc2)C(c2ccc(Cl)cc2)=N1 (single isomer, unassigned) [Compound 33a, (Z)-2-(3-(4-chlorophenyl)-4-phenyl-N′-((4-(trifluoromethyl)phenyl)sulfonyl)-1,4,5,6-tetrahydropyridazine-1-carboximidamido)-3-phenylpropanamide]
Ki (CB1): 66.8 nM | IC50 (Brain/CB1): 423 nM

NC(=O)C(Cc1ccccc1)N/C(=N/S(=O)(=O)c1ccc(C(F)(F)F)cc1)N1CCC(c2ccccc2)C(c2ccc(Cl)cc2)=N1 (single isomer, unassigned) [Compound 33b, (Z)-2-(3-(4-chlorophenyl)-4-phenyl-N′-((4-(trifluoromethyl)phenyl)sulfonyl)-1,4,5,6-tetrahydropyridazine-1-carboximidamido)-3-phenylpropanamide]
Ki (CB1): 6.13 nM | IC50 (Brain/CB1): 12 nM

COC(=O)C(N/C(=N/S(=O)(=O)c1ccc(C(F)(F)F)cc1)N1CCC(c2ccccc2)C(c2ccc(Cl)cc2)=N1)C(C)C (single isomer, unassigned) [Compound 34a]
Ki (CB1): 46.4 nM | IC50 (Brain/CB1): 41 nM

COC(=O)C(N/C(=N/S(=O)(=O)c1ccc(C(F)(F)F)cc1)N1CCC(c2ccccc2)C(c2ccc(Cl)cc2)=N1)C(C)C (single isomer, unassigned) [Compound 34b]
Ki (CB1): 2.71 nM | IC50 (Brain/CB1): 17 nM

C/C(N)=N\C(=N\S(=O)(=O)c1cccc(C(F)(F)F)c1)N1CCC(c2ccccc2)C(c2ccc(Cl)cc2)=N1 (centres unmarked) [Compound 10c, (Z)—N—((E)-1-aminoethylidene)-3-(4-chlorophenyl)-4-phenyl-N′-((3-(trifluoromethyl)phenyl)sulfonyl)-5,6-dihydropyridazine-1 (4H)-carboximidamide]
Ki (CB1): 28.3 nM | IC50 (Brain/CB1): 105 nM

C/C(N)=N\C(=N\S(=O)(=O)c1ccc2ccccc2c1)N1CCC(c2ccccc2)C(c2ccc(Cl)cc2)=N1 (centres unmarked) [Compound 10f, (Z)—N—((E)-1-aminoethylidene)-3-(4-chlorophenyl)-N′-(naphthalen-2-ylsulfonyl)-4-phenyl-5,6-dihydropyridazine-1 (4H)-carboximidamide]
Ki (CB1): 31.4 nM | IC50 (Brain/CB1): 132 nM

C/C(N)=N\C(=N\S(=O)(=O)c1ccccc1)N1CCC(c2ccccc2)C(c2ccc(Cl)cc2)=N1 (centres unmarked) [Compound 10g, (Z)—N—((E)-1-aminoethylidene)-3-(4-chlorophenyl)-4-phenyl-N′-(phenylsulfonyl)-5,6-dihydropyridazine-1 (4H)-carboximidamide]
Ki (CB1): 128 nM and 212 nM | IC50 (Brain/CB1): 357 nM

COc1ccc(S(=O)(=O)/N=C(/N=C(\C)N)N2CCC(c3ccccc3)C(c3ccc(Cl)cc3)=N2)cc1 (centres unmarked) [Compound 10h, (Z)—N—((E)-1-aminoethylidene)-3-(4-chlorophenyl)-N′-((4-methoxyphenyl)sulfonyl)-4-phenyl-5,6-dihydropyridazine-1 (4H)-carboximidamide]
Ki (CB1): 105 nM | IC50 (Brain/CB1): 357 nM
